Source: ChEMBL document CHEMBL3885861, “Open TG-GATES”

Species: Rattus norvegicus
Test: Open TG-GATES - Regimen: Daily Repeat
Assay type: toxicity, organism-based, Sprague-Dawley
Parameters: regimen Daily Repeat, gender Male, age 6 weeks
Details: in vivo, po, route gavage; for APTT / Bas / Eos / Fbg / Hb / Ht / Lym / MCH / MCHC / MCV / Mono / Neu / PT / Plat / RBC / Ret / WBC: tissue Blood; for KIDNEY_L / KIDNEY_R / KIDNEY_TOTAL: tissue Kidney; for LIVER: tissue Liver; for A/G / ALP / ALT / AST / BUN / CRE / Ca / Cl / DBIL / GLC / IP / K / LDH / Na / PL / RALB / TBIL / TC / TG / TP / gamma-GTP: tissue Plasma
[1] = 0 mg/kg, 72 h, dose level Control, time 3 day
[2] = 0 mg/kg, […], dose level Control, time 7 day
[3] = 0 mg/kg, […], dose level Control, time 14 day
[4] = 0 mg/kg, […], dose level Control, time 28 day
[5] = 20 mg/kg, 72 h, dose level Low, time 3 day
[6] = 20 mg/kg, […], dose level Low, time 7 day
[7] = 20 mg/kg, […], dose level Low, time 14 day
[8] = 20 mg/kg, […], dose level Low, time 28 day

CC(CN1c2ccccc2Sc2ccccc21)N(C)C (centres undefined) [PROMETHAZINE]
TERMINAL_BW [1]: 230.6 g
APTT [1]: 22.8 s
Bas [1]: 0%
Eos [1]: 1%
Fbg [1]: 309 mg/dL
Hb [1]: 13.2 g/dL
Ht [1]: 40.1%
Lym [1]: 81.2%
MCH [1]: 20.4 pg
MCHC [1]: 33%
MCV [1]: 61.9 fL
Mono [1]: 2.8%
Neu [1]: 14.5%
PT [1]: 16.1 s
Plat [1]: 117 x10_4/uL
RBC [1]: 647.8 x10_4/ul
Ret [1]: 6%
WBC [1]: 94 x10_2/uL
KIDNEY_L [1]: 1 g
KIDNEY_R [1]: 1.1 g
KIDNEY_TOTAL [1]: 2.1 g
LIVER [1]: 11.1 g
A/G [1]: 1.3
ALP [1]: 1577 IU/L
ALT [1]: 40 IU/L
AST [1]: 71.8 IU/L
BUN [1]: 17 mg/dL
CRE [1]: 0.2 mg/dL
Ca [1]: 10.5 mg/dL
Cl [1]: 105.2 meq/L
DBIL [1]: 0 mg/dL
GLC [1]: 195.2 mg/dL
IP [1]: 6.8 mg/dL
K [1]: 4.6 meq/L
LDH [1]: 177 IU/L
Na [1]: 141.2 meq/L
PL [1]: 161 mg/dL
RALB [1]: 3.1 g/dL
TBIL [1]: 0.005 mg/dL
TC [1]: 86.8 mg/dL
TG [1]: 109.8 mg/dL
TP [1]: 5.5 g/dL
gamma-GTP [1]: 1.8 IU/L
TERMINAL_BW [2]: 267.8 g
TERMINAL_BW [3]: 326 g
TERMINAL_BW [4]: 402.8 g
APTT [2]: 22.2 s
Bas [2]: 0%
Eos [2]: 0.8%
Fbg [2]: 293.8 mg/dL
Hb [2]: 12.9 g/dL
Ht [2]: 39.1%
Lym [2]: 84.2%
MCH [2]: 20.4 pg
MCHC [2]: 33%
MCV [2]: 61.7 fL
Mono [2]: 2.2%
Neu [2]: 12.2%
PT [2]: 16.3 s
Plat [2]: 105 x10_4/uL
RBC [2]: 633.4 x10_4/ul
Ret [2]: 6.3%
WBC [2]: 131.7 x10_2/uL
APTT [3]: 23.3 s
Bas [3]: 0%
Eos [3]: 1%
Fbg [3]: 317.8 mg/dL
Hb [3]: 14.1 g/dL
Ht [3]: 41.4%
Lym [3]: 80.2%
MCH [3]: 20.7 pg
MCHC [3]: 34%
MCV [3]: 60.8 fL
Mono [3]: 2%
Neu [3]: 15.8%
PT [3]: 16 s
Plat [3]: 114.3 x10_4/uL
RBC [3]: 681 x10_4/ul
Ret [3]: 5.1%
WBC [3]: 127.7 x10_2/uL
APTT [4]: 22.7 s
Bas [4]: 0%
Eos [4]: 0.8%
Fbg [4]: 341.8 mg/dL
Hb [4]: 15.1 g/dL
Ht [4]: 43.8%
Lym [4]: 80.2%
MCH [4]: 19.9 pg
MCHC [4]: 34.6%
MCV [4]: 57.7 fL
Mono [4]: 1.8%
Neu [4]: 16.4%
PT [4]: 16.4 s
Plat [4]: 101.8 x10_4/uL
RBC [4]: 760.2 x10_4/ul
Ret [4]: 2.9%
WBC [4]: 124 x10_2/uL
KIDNEY_L [2]: 1.2 g
KIDNEY_R [2]: 1.2 g
KIDNEY_TOTAL [2]: 2.3 g
KIDNEY_L [3]: 1.2 g
KIDNEY_R [3]: 1.2 g
KIDNEY_TOTAL [3]: 2.5 g
KIDNEY_L [4]: 1.4 g
KIDNEY_R [4]: 1.4 g
KIDNEY_TOTAL [4]: 2.8 g
LIVER [2]: 12.3 g
LIVER [3]: 15.1 g
LIVER [4]: 16.9 g
A/G [2]: 1.3
ALP [2]: 1379.8 IU/L
ALT [2]: 42.2 IU/L
AST [2]: 73.2 IU/L
BUN [2]: 17.6 mg/dL
CRE [2]: 0.2 mg/dL
Ca [2]: 10.7 mg/dL
Cl [2]: 104.6 meq/L
DBIL [2]: 0 mg/dL
GLC [2]: 205.2 mg/dL
IP [2]: 7.7 mg/dL
K [2]: 4.6 meq/L
LDH [2]: 212.4 IU/L
Na [2]: 141.2 meq/L
PL [2]: 133.6 mg/dL
RALB [2]: 3.1 g/dL
TBIL [2]: 0.012 mg/dL
TC [2]: 64.4 mg/dL
TG [2]: 89.4 mg/dL
TP [2]: 5.4 g/dL
gamma-GTP [2]: 2 IU/L
A/G [3]: 1.2
ALP [3]: 1370.6 IU/L
ALT [3]: 40 IU/L
AST [3]: 70.4 IU/L
BUN [3]: 18.8 mg/dL
CRE [3]: 0.2 mg/dL
Ca [3]: 10.8 mg/dL
Cl [3]: 105.4 meq/L
DBIL [3]: 0 mg/dL
GLC [3]: 201 mg/dL
IP [3]: 7 mg/dL
K [3]: 4.3 meq/L
LDH [3]: 162.6 IU/L
Na [3]: 142.2 meq/L
PL [3]: 136.8 mg/dL
RALB [3]: 3.2 g/dL
TBIL [3]: 0.002 mg/dL
TC [3]: 66 mg/dL
TG [3]: 133 mg/dL
TP [3]: 5.9 g/dL
gamma-GTP [3]: 3 IU/L
A/G [4]: 1
ALP [4]: 1347.2 IU/L
ALT [4]: 42.4 IU/L
AST [4]: 66.8 IU/L
BUN [4]: 19.4 mg/dL
CRE [4]: 0.2 mg/dL
Ca [4]: 10.4 mg/dL
Cl [4]: 104.8 meq/L
DBIL [4]: 0 mg/dL
GLC [4]: 195.8 mg/dL
IP [4]: 6.3 mg/dL
K [4]: 4 meq/L
LDH [4]: 160.6 IU/L
Na [4]: 143.2 meq/L
PL [4]: 149 mg/dL
RALB [4]: 3 g/dL
TBIL [4]: 0.006 mg/dL
TC [4]: 65.8 mg/dL
TG [4]: 192.8 mg/dL
TP [4]: 6.2 g/dL
gamma-GTP [4]: 2.6 IU/L
TERMINAL_BW [5]: 231 g
APTT [5]: 22 s
Bas [5]: 0%
Eos [5]: 1%
Fbg [5]: 314.4 mg/dL
Hb [5]: 13.3 g/dL
Ht [5]: 40.4%
Lym [5]: 77.2%
MCH [5]: 20.7 pg
MCHC [5]: 33.1%
MCV [5]: 62.7 fL
Mono [5]: 2.4%
Neu [5]: 18.6%
PT [5]: 16.2 s
Plat [5]: 125.4 x10_4/uL
RBC [5]: 644.6 x10_4/ul
Ret [5]: 6.8%
WBC [5]: 97.3 x10_2/uL
KIDNEY_L [5]: 1 g
KIDNEY_R [5]: 1.1 g
KIDNEY_TOTAL [5]: 2.1 g
LIVER [5]: 11.5 g
A/G [5]: 1.2
ALP [5]: 1570.4 IU/L
ALT [5]: 48.2 IU/L
AST [5]: 75.2 IU/L
BUN [5]: 17.2 mg/dL
CRE [5]: 0.2 mg/dL
Ca [5]: 10.8 mg/dL
Cl [5]: 105.4 meq/L
DBIL [5]: 0 mg/dL
GLC [5]: 184 mg/dL
IP [5]: 7.1 mg/dL
K [5]: 4.3 meq/L
LDH [5]: 166.4 IU/L
Na [5]: 142 meq/L
PL [5]: 155.2 mg/dL
RALB [5]: 3.1 g/dL
TBIL [5]: 0.004 mg/dL
TC [5]: 78.2 mg/dL
TG [5]: 118.4 mg/dL
TP [5]: 5.7 g/dL
gamma-GTP [5]: 2 IU/L
TERMINAL_BW [6]: 261 g
TERMINAL_BW [7]: 292.3 g
TERMINAL_BW [8]: 387.7 g
APTT [6]: 22.6 s
Bas [6]: 0%
Eos [6]: 0.8%
Fbg [6]: 282.6 mg/dL
Hb [6]: 13.4 g/dL
Ht [6]: 40.4%
Lym [6]: 84.4%
MCH [6]: 20.5 pg
MCHC [6]: 33.3%
MCV [6]: 61.5 fL
Mono [6]: 2.4%
Neu [6]: 11.6%
PT [6]: 16 s
Plat [6]: 114.7 x10_4/uL
RBC [6]: 657.4 x10_4/ul
Ret [6]: 5.4%
WBC [6]: 125.4 x10_2/uL
APTT [7]: 23.8 s
Bas [7]: 0%
Eos [7]: 1%
Fbg [7]: 315 mg/dL
Hb [7]: 14.7 g/dL
Ht [7]: 42.6%
Lym [7]: 79.6%
MCH [7]: 19.8 pg
MCHC [7]: 34.4%
MCV [7]: 57.6 fL
Mono [7]: 2%
Neu [7]: 16.6%
PT [7]: 15.8 s
Plat [7]: 112 x10_4/uL
RBC [7]: 740.6 x10_4/ul
Ret [7]: 4.2%
WBC [7]: 109.3 x10_2/uL
APTT [8]: 23.6 s
Bas [8]: 0%
Eos [8]: 1%
Fbg [8]: 297.6 mg/dL
Hb [8]: 15 g/dL
Ht [8]: 43.5%
Lym [8]: 79.2%
MCH [8]: 19.1 pg
MCHC [8]: 34.6%
MCV [8]: 55.2 fL
Mono [8]: 1.6%
Neu [8]: 17.4%
PT [8]: 16.3 s
Plat [8]: 96.2 x10_4/uL
RBC [8]: 787.8 x10_4/ul
Ret [8]: 2.3%
WBC [8]: 118.8 x10_2/uL
KIDNEY_L [6]: 1.1 g
KIDNEY_R [6]: 1.1 g
KIDNEY_TOTAL [6]: 2.2 g
KIDNEY_L [7]: 1.1 g
KIDNEY_R [7]: 1.1 g
KIDNEY_TOTAL [7]: 2.3 g
KIDNEY_L [8]: 1.4 g
KIDNEY_R [8]: 1.4 g
KIDNEY_TOTAL [8]: 2.7 g
LIVER [6]: 12.4 g
LIVER [7]: 13.1 g
LIVER [8]: 15.9 g
A/G [6]: 1.3
ALP [6]: 1595.8 IU/L
ALT [6]: 46 IU/L
AST [6]: 79.8 IU/L
BUN [6]: 18.2 mg/dL
CRE [6]: 0.2 mg/dL
Ca [6]: 10.5 mg/dL
Cl [6]: 106.4 meq/L
DBIL [6]: 0 mg/dL
GLC [6]: 185.2 mg/dL
IP [6]: 6.7 mg/dL
K [6]: 4.3 meq/L
LDH [6]: 169.2 IU/L
Na [6]: 141.6 meq/L
PL [6]: 133 mg/dL
RALB [6]: 3.1 g/dL
TBIL [6]: 0.004 mg/dL
TC [6]: 66.2 mg/dL
TG [6]: 113.4 mg/dL
TP [6]: 5.5 g/dL
gamma-GTP [6]: 1.8 IU/L
A/G [7]: 1.2
ALP [7]: 1261.8 IU/L
ALT [7]: 45.8 IU/L
AST [7]: 71.4 IU/L
BUN [7]: 18.6 mg/dL
CRE [7]: 0.2 mg/dL
Ca [7]: 10.6 mg/dL
Cl [7]: 106 meq/L
DBIL [7]: 0 mg/dL
GLC [7]: 182.6 mg/dL
IP [7]: 6.2 mg/dL
K [7]: 4.1 meq/L
LDH [7]: 128.4 IU/L
Na [7]: 142.6 meq/L
PL [7]: 146.6 mg/dL
RALB [7]: 3.2 g/dL
TBIL [7]: 0.004 mg/dL
TC [7]: 71.6 mg/dL
TG [7]: 116.6 mg/dL
TP [7]: 5.8 g/dL
gamma-GTP [7]: 2.6 IU/L
A/G [8]: 1.1
ALP [8]: 1046.2 IU/L
ALT [8]: 48.6 IU/L
AST [8]: 71.6 IU/L
BUN [8]: 19.8 mg/dL
CRE [8]: 0.2 mg/dL
Ca [8]: 10.4 mg/dL
Cl [8]: 106.4 meq/L
DBIL [8]: 0 mg/dL
GLC [8]: 184.6 mg/dL
IP [8]: 5.9 mg/dL
K [8]: 4 meq/L
LDH [8]: 136 IU/L
Na [8]: 143.2 meq/L
PL [8]: 137.4 mg/dL
RALB [8]: 3.1 g/dL
TBIL [8]: 0.006 mg/dL
TC [8]: 65.4 mg/dL
TG [8]: 139.8 mg/dL
TP [8]: 6 g/dL
gamma-GTP [8]: 2 IU/L
